In patent US10669261B2, “Heteroarylhydroxypyrimidinones as agonists of the APJ receptor” (BRISTOL-MYERS SQUIBB COMPANY, priority 2015, dated 2020):

Target: T1, human APJ receptor (Homo sapiens, UniProt P35414)
T1 construct: expressed in transfected cells
T1 sequence (P35414 1-380): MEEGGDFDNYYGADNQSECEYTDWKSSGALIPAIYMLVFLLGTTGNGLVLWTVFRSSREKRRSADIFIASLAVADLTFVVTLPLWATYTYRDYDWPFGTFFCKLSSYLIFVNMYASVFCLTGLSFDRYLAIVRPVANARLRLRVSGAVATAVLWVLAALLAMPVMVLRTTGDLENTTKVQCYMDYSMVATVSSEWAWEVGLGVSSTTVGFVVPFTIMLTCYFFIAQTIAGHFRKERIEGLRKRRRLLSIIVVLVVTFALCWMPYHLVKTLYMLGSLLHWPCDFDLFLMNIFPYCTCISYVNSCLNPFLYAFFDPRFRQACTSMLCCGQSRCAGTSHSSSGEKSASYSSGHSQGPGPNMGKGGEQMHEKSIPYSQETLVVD
Assay: Intracellular cAMP accumulation assay (APJ hcAMP, HTRF)
Type: cell-based
Conditions: HEK293 cells stably expressing human APJ receptor; inhibition of forskolin-mediated cAMP production; stated at end of example; read-out: Human APJ cAMP Potency Range
Method: Intracellular cAMP Accumulation Assay
HEK293 cells stably expressing human APJ receptor were used to assess the activity of compounds. Cultured cells were detached and resuspended in the cAMP Homogeneous Time-Resolved Fluorescence (HTRF) assay buffer (Cisbio cat; #62AM4PEJ). The assay was performed in 384-well assay plates (Perkin-Elmer; cat #6008289) according to assay protocol provided by the manufacturer. Serial dilutions of a compound together with assay buffer containing […] IBMX and 2 μM forskolin were added to each well containing 5,000 cells and incubated for 30 minutes at room temperature. Subsequently, cAMP D2 reagent was added in the lysis buffer followed by the EuK antibody (Cisbio; cat #62AM4PEJ) and incubated for 60 min. The fluorescence emission ratio was measured using fluorometer. The intracellular cAMP concentrations (compound-stimulated inhibition of forskolin-mediated cAMP production) were calculated by extrapolation from a standard curve using known cAMP concentrations. The EC50 values were obtained by fitting the data to a sigmoidal concentration-response curve with variable slope. The maximal achievable inhibition of forskolin-induced cAMP levels (Ymax) for each compound was expressed as relative percentage of inhibition attained using pyroglutamated apelin-13 ((Pyr1)apelin-13) peptide, which was set to 100%.
The examples disclosed below were tested in the APJ in vitro assays described above and were found having human APJ cyclic AMP (hcAMP) activity. The EC50 value of each compound is presented at the end of the example description.
The biological activity of the exemplified compounds of this invention determined by the assay described above is shown at the end of each example.

EC50, 0.01 to 10 nM:
[2H]C([2H])([2H])Oc1cccc(OC([2H])([2H])[2H])c1-n1c(CCCC)nc(=O)c(-c2nnc(Cc3noc4ccccc34)o2)c1O [Example 48, 5-(5-(Benzo[d]isoxazol-3-ylmethyl)-1,3,4-oxadiazol-2-yl)-2-butyl-1-(2,6-di[^2H3]methoxyphenyl)-6-hydroxypyrimidin-4(1H)-one]
CCN(CC)C(=O)Cc1nnc(-c2c(O)n(-c3c(OC)cccc3OC)c(CCC3CC3)nc2=O)o1 [Example 52, 2-(5-(2-(2-Cyclopropylethyl)-1-(2,6-dimethoxyphenyl)-6-hydroxy-4-oxo-1,4-dihydropyrimidin-5-yl)-1,3,4-oxadiazol-2-yl)-N,N-diethylacetamide]
COc1cccc(OC)c1-n1c(CCC2CC2)nc(=O)c(-c2nnc(CN(C)C(=O)c3ccccn3)o2)c1O [Example 53, N-((5-(2-(2-cyclopropylethyl)-1-(2,6-dimethoxyphenyl)-6-hydroxy-4-oxo-1,4-dihydropyrimidin-5-yl)-1,3,4-oxadiazol-2-yl)methyl)-N-methylpicolinamide]

Same assay, conditions: Table 1; HEK293 cells stably expressing human APJ receptor; read-out: hAPJ cAMP EC50 Potency range

EC50, 0.01 to 10 nM:
[2H]C([2H])([2H])Oc1cccc(OC([2H])([2H])[2H])c1-n1c(CCCC)nc(=O)c(-c2nnc(Cc3ccc(Cl)cc3)o2)c1O [Example 49, 1-[2,6-bis(^2H3)methoxyphenyl]-2-butyl-5-{5-[(4-chlorophenyl)methyl]-1,3,4-oxadiazol-2-yl}-6-hydroxy-1,4-dihydropyrimidin-4-one]
[2H]C([2H])([2H])Oc1cccc(OC([2H])([2H])[2H])c1-n1c(COCC)nc(=O)c(-c2nnc(Cc3noc4ccccc34)o2)c1O [Example 50, 5-[5-(1,2-benzoxazol-3-ylmethyl)-1,3,4-oxadiazol-2-yl]-1-[2,6-bis(^2H3)methoxyphenyl]-2-(ethoxymethyl)-6-hydroxy-1,4-dihydropyrimidin-4-one]
[2H]C([2H])([2H])Oc1cccc(OC([2H])([2H])[2H])c1-n1c(COCC)nc(=O)c(-c2nnc(Cc3ccc(Cl)cc3)o2)c1O [Example 51, 1-[2,6-bis(^2H3)methoxyphenyl]-5-{5-[(4-chlorophenyl)methyl]-1,3,4-oxadiazol-2-yl}-2-(ethoxymethyl)-6-hydroxy-1,4-dihydropyrimidin-4-one]
COc1cccc(OC)c1-n1c(CCC2CC2)nc(=O)c(-c2nnc(CN(C)C(=O)c3ccccn3)o2)c1O [Example 54, N-({5-[2-(2-cyclopropylethyl)-1-(2,6-dimethoxyphenyl)-6-hydroxy-4-oxo-1,4-dihydropyrimidin-5-yl]-1,3,4-oxadiazol-2-yl}methyl)-N-methylpyridine-2-carboxamide]
COc1cccc(OC)c1-n1c(CCC2CC2)nc(=O)c(-c2nnc(CNC(=O)c3cccc(Cl)c3)o2)c1O [Example 55, 3-chloro-N-({5-[2-(2-cyclopropylethyl)-1-(2,6-dimethoxyphenyl)-6-hydroxy-4-oxo-1,4-dihydropyrimidin-5-yl]-1,3,4-oxadiazol-2-yl}methyl)benzamide]
COc1cccc(OC)c1-n1c(CCC2CC2)nc(=O)c(-c2nnc(CNC(=O)c3cccnc3)o2)c1O [Example 56, N-({5-[2-(2-cyclopropylethyl)-1-(2,6-dimethoxyphenyl)-6-hydroxy-4-oxo-1,4-dihydropyrimidin-5-yl]-1,3,4-oxadiazol-2-yl}methyl)pyridine-3-carboxamide]
COc1cccc(OC)c1-n1c(CCC2CC2)nc(=O)c(-c2nnc(CNC(=O)c3ccccc3)o2)c1O [Example 57, N-({5-[2-(2-cyclopropylethyl)-1-(2,6-dimethoxyphenyl)-6-hydroxy-4-oxo-1,4-dihydropyrimidin-5-yl]-1,3,4-oxadiazol-2-yl}methyl)benzamide]
COc1cccc(OC)c1-n1c(CCC2CC2)nc(=O)c(-c2nnc(CNC(=O)c3ccccn3)o2)c1O [Example 58, N-({5-[2-(2-cyclopropylethyl)-1-(2,6-dimethoxyphenyl)-6-hydroxy-4-oxo-1,4-dihydropyrimidin-5-yl]-1,3,4-oxadiazol-2-yl}methyl)pyridine-2-carboxamide]
COc1cccc(OC)c1-n1c(CCC2CC2)nc(=O)c(-c2nnc(Cc3ccc(Cl)cn3)o2)c1O [Example 59, 5-{5-[(5-chloropyridin-2-yl)methyl]-1,3,4-oxadiazol-2-yl}-2-(2-cyclopropylethyl)-1-(2,6-dimethoxyphenyl)-6-hydroxy-1,4-dihydropyrimidin-4-one]
COc1cccc(OC)c1-n1c(COC(C)C)nc(=O)c(-c2nnc(Cc3ccc(Cl)cc3F)o2)c1O [Example 60, 5-{5-[(4-chloro-2-fluorophenyl)methyl]-1,3,4-oxadiazol-2-yl}-1-(2,6-dimethoxyphenyl)-6-hydroxy-2-[(propan-2-yloxy)methyl]-1,4-dihydropyrimidin-4-one]
COc1cccc(OC)c1-n1c(CCC2CC2)nc(=O)c(-c2nnc(Cc3ccc(F)cn3)o2)c1O [Example 61, 2-(2-cyclopropylethyl)-1-(2,6-dimethoxyphenyl)-5-{5-[(5-fluoropyridin-2-yl)methyl]-1,3,4-oxadiazol-2-yl}-6-hydroxy-1,4-dihydropyrimidin-4-one]
COc1cccc(OC)c1-n1c(C2CCCC2)nc(=O)c(-c2nnc(Cn3ccccc3=O)o2)c1O [Example 62, 2-cyclopentyl-1-(2,6-dimethoxyphenyl)-6-hydroxy-5-{5-[(2-oxo-1,2-dihydropyridin-1-yl)methyl]-1,3,4-oxadiazol-2-yl}-1,4-dihydropyrimidin-4-one]
COc1cccc(OC)c1-n1c(C2CCCC2)nc(=O)c(-c2nnc(Cc3ccc(Cl)nc3)o2)c1O [Example 63, 5-{5-[(6-chloropyridin-3-yl)methyl]-1,3,4-oxadiazol-2-yl}-2-cyclopentyl-1-(2,6-dimethoxyphenyl)-6-hydroxy-1,4-dihydropyrimidin-4-one]
COc1cccc(OC)c1-n1c(C2CCCC2)nc(=O)c(-c2nnc(CN3CCCC3=O)o2)c1O [Example 64, 2-cyclopentyl-1-(2,6-dimethoxyphenyl)-6-hydroxy-5-{5-[(2-oxopyrrolidin-1-yl)methyl]-1,3,4-oxadiazol-2-yl}-1,4-dihydropyrimidin-4-one]
COc1cccc(OC)c1-n1c(C2CCCC2)nc(=O)c(-c2nnc(Cc3csc(C)n3)o2)c1O [Example 65, 2-cyclopentyl-1-(2,6-dimethoxyphenyl)-6-hydroxy-5-{5-[(2-methyl-1,3-thiazol-4-yl)methyl]-1,3,4-oxadiazol-2-yl}-1,4-dihydropyrimidin-4-one]
COc1cccc(OC)c1-n1c(C2CCCC2)nc(=O)c(-c2nnc(Cc3ccc(Cl)cn3)o2)c1O [Example 66, 5-{5-[(5-chloropyridin-2-yl)methyl]-1,3,4-oxadiazol-2-yl}-2-cyclopentyl-1-(2,6-dimethoxyphenyl)-6-hydroxy-1,4-dihydropyrimidin-4-one]
COc1cccc(OC)c1-n1c(C2CCCC2)nc(=O)c(-c2nnc(Cc3ccc(F)cn3)o2)c1O [Example 67, 2-cyclopentyl-1-(2,6-dimethoxyphenyl)-5-{5-[(5-fluoropyridin-2-yl)methyl]-1,3,4-oxadiazol-2-yl}-6-hydroxy-1,4-dihydropyrimidin-4-one]
COc1cccc(OC)c1-n1c(C2CCCC2)nc(=O)c(-c2nnc(Cc3ccc(C)nc3)o2)c1O [Example 68, 2-cyclopentyl-1-(2,6-dimethoxyphenyl)-6-hydroxy-5-{5-[(6-methylpyridin-3-yl)methyl]-1,3,4-oxadiazol-2-yl}-1,4-dihydropyrimidin-4-one]
COc1cccc(OC)c1-n1c(C2CCCC2)nc(=O)c(-c2nnc(Cc3ncc(Cl)cc3F)o2)c1O [Example 69, 5-{5-[(5-chloro-3-fluoropyridin-2-yl)methyl]-1,3,4-oxadiazol-2-yl}-2 cyclopentyl-1-(2,6-dimethoxyphenyl)-6-hydroxy-1,4-dihydropyrimidin-4-one]
COc1cccc(OC)c1-n1c(C2CCC2)nc(=O)c(-c2nnc(Cc3ccc(Cl)cn3)o2)c1O [Example 70, 5-{5-[(5-chloropyridin-2-yl)methyl]-1,3,4-oxadiazol-2-yl}-2-cyclobutyl-1-(2,6-dimethoxyphenyl)-6-hydroxy-1,4-dihydropyrimidin-4-one]
